Source: US20230073301A1, “TISSUE DOSING FOR INTRALUMINAL LOCAL DRUG DELIVERY” (ISOLA THERAPEUTICS, INC., priority 2020, published 2023)
Several values for one entry are separate records, joined by “and”; a condition that tells them apart may be missing. Equal entries are not always repeated. Where two headings read alike, the source gives them in different places.

Tests used:
[1] = GMX001 plasma PTX concentration after systemic infusion (LC/MS); assay type: in vivo, porcine; conditions: pig; for concentration at 3 h: systemic infusion 175 mg/m^2 over 3 hours; for Cmax: iv, 175 mg/m2, systemic
Experimental: The systemic studies were denoted GMX001 and local administration studies GMX002.
For GMX001 (systemic), anatomy permitting, 2 animals were used and divided into a 3 hour animal and a 72 hour animal.
(§1) For GMX001, both animals underwent surgery to place two (2) CVL catheters, 1 for infusion and 1 for plasma collection. The animals were allowed to recover and stabilize.

[2] = GMX001 colon tissue PTX concentration after systemic infusion; assay type: in vivo, porcine; conditions: 3 hour animal 19P0837; for concentration at 3 h: pig, intravenous, 4.28 mg/kg/hr, Colon PTX concentration
Excerpt: Three samples each were taken from the rectum, transverse (tran) colon, ascending (asc) colon, descending (desc) colon and colon lymph nodes (LN).

[3] = GMX002 plasma PTX concentration after local lung lavage; assay type: in vivo, porcine
Experimental: For GMX002 (local), anatomy permitting, 2 animals were divided into a 20 minute animal and a 72 hour animal.
The necropsy for tissue collection was completed to obtain information on the drug concentration within the lung and lung lymph nodes.
The chronic (72 hour) animal in the study was recovered with blood plasma samples collected immediately after infusion, followed by additional blood plasma collection occurring at 5, 15, and 30 minutes following infusion. More blood plasma was collected after 1, 3, 5, 9, 24, and 72 hours. The necropsy for tissue collection took place 72 hours after infusion with drug concentration measurements in the lung and lung lymph nodes. Histopathology was done on the lung.
Animal 19P0844 was infused with 700 mL. Animal 19P1241 was infused with approximately 900 mL.
Animal 19P1241 had 2 mL of blood collected at baseline and at 5, 10, 15 and 20 minutes of infusion. Plasma was collected for processing. Animal 19P0884 had 2 mL of blood collected at baseline, 5, 10, 15 and 20 minutes of infusion. Following infusion, blood was collected at 5, 15, 30 minutes with more blood being collected after 1, 3, 5, 9, 24, and 72 hours.

[4] = GMX002 lung tissue PTX concentration after local lung lavage; assay type: in vivo, porcine; conditions: for concentration at 20 min: pig
Experimental: A blood sample was also collected at 0, 5, 10, 15, and 20 minutes.
(§2) Spectra were compared to the validated protocol and standard curve generated for the study.
The acute animal (19P1241) and the chronic animal (19P0884) were sent to necropsy for gross pathology and tissue harvesting. Three full thickness lung tissue sample from each of the cranial (cran) caudal (caud) and middle (mid) lobes of the untreated left lung and three lung tissue samples from each of the cranial (cran) caudal (caud) and middle (mid) lobes of the treated right lung were taken from the 20 minute animal, frozen and sent for analytical analysis.

[5] = assay type: in vivo, porcine
Experimental: as §1
Animal 19P0837 had 2 mL of blood collected at baseline and after the 3 hours infusion. […] Blood was processed and sent to Analytical for processing. […] The animal survived to the scheduled term with signs of discomfort as per technician's observations. The animal had blisters on the chest at day 3, prior to term.
Gross examination of the lungs, colon, jejunum, regional lymph nodes, and collateral structures was conducted. […] Lungs were also slightly heavy. […] Small intestine appeared bloated diffusely. The lumen of darkened jejunum section appeared mottled dark purple to black. There were no other abnormal findings noted at necropsy.

in vivo [6] = conditions: pig, intravenous
Excerpt: (§3) The necropsy for tissue collection after the last plasma sample focused on drug concentration and included: lung, lung lymph nodes, colon, and the colon lymph nodes.
as §2
(§4) The acute animal (19P0837) and the chronic animal (19P0997) were sent to necropsy for gross pathology and tissue harvesting. Three full thickness lung tissue samples from each of the cranial (cran) caudal (caud) and middle (mid) lobes were frozen and sent for analytical analysis.

[7] = GMX001 lung and lung lymph node PTX concentration after systemic infusion
Excerpt: as §3, §2, §4

[8] = Animal experiment, first pig: systemic paclitaxel, plasma and lung tissue concentration
Experimental: (§5) A first pig was given 4.28 mg/kg/hr of paclitaxel systemically, i.e., intravenously over three hours. […] Next, the lung tissue in a second pig was saturated with paclitaxel via the airways by an endoluminal approach. […] The drug solution dwelled in the airways of the second animal for approximately 20 minutes to ensure saturation of the lung tissue before being evacuated from the airways.

[9] = Animal experiment, second pig: endoluminal airway paclitaxel, lung tissue concentration; conditions: soaking solution 75.8 μM in airways, approximately 20 minutes dwell
Experimental: as §5

[10] = humans, cited from earlier work
[11] = Porcine local levofloxacin: pathology and side effects; assay type: in vivo
Experimental: (§6) Porcine studies were performed similarly to as described in Example A but using levofloxacin as the drug agent. Only local administration to the lung was performed.

[12] = pig, in vivo
Experimental: as §6

[13] = humans; systemic administration; cited from earlier work
in vivo [14] = conditions: pig
Experimental: as §6

[15] = local lavage of right lung, 20 min, animal 19P1241
[16] = lung tissue (RT mid lung), 175 mg/m^2
[17] = systemic, 3 hour animal 19P0837
[18] = systemic, 72 hour animal 19P0997

SMILES: CC(=O)O[C@H]1C(=O)[C@@]2(C)[C@H]([C@H](OC(=O)c3ccccc3)[C@]3(O)C[C@H](OC(=O)[C@H](O)[C@@H](NC(=O)c4ccccc4)c4ccccc4)C(C)=C1C3(C)C)[C@]1(OC(C)=O)CO[C@@H]1C[C@@H]2O [PTX, 5β,20-Epoxy-1,2α,4,7β,10β,13α-hexahydroxytax-11-en-9-one 4,10-diacetate 2-benzoate 13-ester with (2R,3S)-N-benzoyl-3-phenylisoserine]
- concentration at 3 h ([1]; intravenous, 175 mg/m^2, Blood PTX concentration, animal 19P0837, 3 hr): 57000 ng/mL
- concentration at 3 h ([1]; intravenous, 175 mg/m^2, Blood PTX concentration, animal 19P0997, 3 hr): 67100 ng/mL
- concentration at 4 h ([1]; intravenous, 175 mg/m^2, Blood PTX concentration, systemic infusion, animal 19P0997, 4 hr): 43100 ng/mL
- concentration at 6 h ([1]; intravenous, 175 mg/m^2, Blood PTX concentration, systemic infusion, animal 19P0997, 6 hr): 28500 ng/mL
- concentration at 8 h ([1]; intravenous, 175 mg/m^2, Blood PTX concentration, systemic infusion, animal 19P0997, 8 hr): 27100 ng/mL
- concentration at 12 h ([1]; intravenous, 175 mg/m^2, Blood PTX concentration, systemic infusion, animal 19P0997, 12 hr): 20500 ng/mL
- concentration at 24 h ([1]; intravenous, 175 mg/m^2, Blood PTX concentration, systemic infusion, animal 19P0997, 24 hr): 9110 ng/mL
- concentration at 72 h ([1]; intravenous, 175 mg/m^2, Blood PTX concentration, systemic infusion, animal 19P0997, 72 hr): 713 ng/mL
- Cmax ([1]; 3 hour animal): 57000 ng/mL
- Cmax ([1]; 72 hour animal): 67100 ng/mL
- Colon PTX concentration, asc colon [2]: 16900 ng/g and 13200 ng/g
- Colon PTX concentration, colon LN [2]: 12700 ng/g and 17700 ng/g
- Colon PTX concentration, desc colon [2]: 12700 ng/g and 12800 ng/g
- Colon PTX concentration, rectum [2]: 14100 ng/g and 16000 ng/g
- Colon PTX concentration, tran colon [2]: 14600 ng/g and 13200 ng/g
- concentration at 3 h ([2]; ascending colon, asc colon): 10800 ng/g
- concentration at 3 h ([2]; colon lymph nodes, colon LN): 19600 ng/g
- concentration at 3 h ([2]; descending colon, desc colon): 12500 ng/g
- concentration at 3 h ([2]; rectum): 14400 ng/g
- concentration at 3 h ([2]; transverse colon, tran colon): 13500 ng/g
- plasma Cmax local / systemic ([3]; […]57000 ng/mL): 0.048%
- plasma Cmax local / systemic ([3]; […]67100 ng/mL): 0.041%
- plasma Cmax for local administration as % of plasma Cmax with systemic administration ([3]; local vs systemic): less than 0.05%
- plasma Cmax lower with local than with systemic administration ([3]; local vs systemic): more than 2000 fold
- time of peak plasma concentration after end of lung infusion ([3]; local, 32,000 ng/mL, after the lung was cleared of the drug): 5 min
- time of peak concentration of PTX in plasma after infusion initiation ([3]; local, 72 hour animal 19P0844): 25
- Cmax ([3]; pig, plasma, other: local lung lavage (right lung, via catheter), 32000 ng/mL (lavage solution), local, 5 minutes post local infusion, read-out: maximum concentration in plasma (Cmax)): 27.6 ng/mL
- Lung PTX concentration, RT caud lung [4, 15]: 35300 ng/g tissue and 29800 ng/g tissue
- Lung PTX concentration, RT cran lung [4, 15]: 32100 ng/g tissue and 38400 ng/g tissue
- Lung PTX concentration, RT Mid Lung ([4]; local lavage of right lung, 20 min, animal 19P1241, middle lobe believed blocked): 760 ng/g tissue and 557 ng/g tissue
- lower drug concentration with local vs systemic administration for same lung tissue uptake ([4]; local vs systemic): 37 fold
- concentration at 20 min ([4]; lung tissue, other: local lung lavage (right lung, via catheter), 32000 ng/mL (lavage solution), PTX in lung tissue achieved, local administration (GMX002)): > 30000 ng/g
- concentration at 20 min ([4]; lung tissue, other: local lung lavage (right lung, via catheter), 32000 ng/mL (lavage solution), PTX per g of lung tissue, local, acute animal): ~32000 ng/g
- concentration at 20 min ([4]; lung tissue, other: local lung lavage (right lung, via catheter), 32000 ng/mL (lavage solution), highest PTX level in lung tissue, local administration): 38400 ng/g
- concentration at 20 min ([4]; lung, caudal lobe of the treated right lung, 32000 ng/mL, Lung PTX concentration, RT Caud Lung, local lavage of right lung, 20 min, animal 19P1241): 34600 ng/g
- concentration at 20 min ([4]; lung, middle lobe of the treated right lung, 32000 ng/mL, Lung PTX concentration, RT Mid Lung, local lavage of right lung, 20 min, animal 19P1241, middle lobe believed blocked): 749 ng/g
- early mortality ([5]; GMX001): no early mortality
- distress with infusion ([5]; pig, in vivo): showed distress
- terminal clinical pathology ([5]; pig, in vivo): decrease in WBC, neutrophils, lymphocytes and platelet counts
- early mortality (GMX002): no early mortality
- Clinical observations (pig, in vivo): GMX002: Unremarkable
- Physical examination (pig, in vivo): GMX002: Unremarkable
- adverse events / clinical observations (pig, in vivo): did not have any adverse events
- distress or complications during administration (pig, in vivo): did not show signs of distress or complications
- gross necropsy findings (pig, in vivo): no other abnormal findings noted at necropsy that could be attributed to the treatment
- terminal clinical pathology (pig, in vivo): clinical markers comparable to baseline
- concentration at 72 h (in vivo [6]; lung lymph node, 175 mg/m^2): 4340 ng/g
- concentration at 3 h (in vivo [6]; lung tissue (RT caud lung), 175 mg/m^2): 42900 ng/g
- concentration at 3 h (in vivo [6]; lung tissue (RT cran lung), 175 mg/m^2): 32200 ng/g
- concentration at 3 h (in vivo [6]; [16]): 32000 ng/g
- concentration at 72 h (in vivo [6]; [16]): 3560 ng/g
- concentration at 72 h (in vivo [6]; lung, right caudal lobe, 4.28 mg/kg/hr): 2720 ng/g
- decrease of lung PTX concentration 72 hours following systemic administration ([7]; 3 hour animal 19P0837 vs 72 hour animal 19P0997): approximately 3.5 fold
- PTX in lung tissue achieved ([7]; systemic administration (GMX001)): greater than 30000 ng/g
- lung tissue concentration range ([7]; systemic drug delivery at 3 hours): 12,500-41,200 ng/g
- Lung PTX concentration, RT caud lung [7, 17]: 28800 ng/g and 31600 ng/g
- Lung PTX concentration, RT cran lung [7, 17]: 27000 ng/g and 27300 ng/g
- Lung PTX concentration, RT mid lung [7, 17]: 41200 ng/g and 28300 ng/g
- Lung PTX concentration, RT caud lung [7, 18]: 2070 ng/g
- Lung PTX concentration, RT cran lung [7, 18]: 2660 ng/g
- Lung PTX concentration, RT mid lung [7, 18]: 2590 ng/g
- Lung PTX concentration, lung LN ([7]; systemic, 72 hour animal 19P0997, lung lymph node samples): 4240 ng/g
- maximum plasma concentration MPC ([8]; 4.28 mg/kg/hr intravenously over three hours): 78.58 µM
- average lung tissue concentration TC ([8]; samples immediately after systemic delivery): 37.9 µM
- average lung tissue concentration TC [9]: 40.4 µM

SMILES: N.N.[Cl][Pt][Cl] [cisplatin]
- Cmax ([10]; systemic administration, read-out: Typical plasma Cmax): 30 µM
- typical lung tissue Cmax ([10]; systemic delivery): 170 µM

SMILES: C[C@H]1COc2c(N3CCN(C)CC3)c(F)cc3c(=O)c(C(=O)O)cn1c23 [levofloxacin]
- lung damage at pathology ([11]; following local delivery): No lung damage was observed
- side effects ([11]; local delivery): no significant side effects
- Sputum levels [12]: 32 µg/mL
- Typical plasma Cmax [13]: 5600 ng/mL
- Cmax (in vivo [14]): 291 ng/mL
